From US9464052B2, “Potassium ion channel modulators and uses thereof” (Ramot at Tel-Aviv University Ltd., priority 2008, dated 2016)

Molecular target: KCNQ2/KCNQ3 potassium channel (Homo sapiens, UniProt O43525+O43526)
Assay: KCNQ2/KCNQ3 potassium channel current, automated parallel patch clamp (PatchXpress 7000A)
Format: cell-based
Settings: channel expressed in mammalian cells, ambient temperature
Description: The objective of this study was to examine the in vitro effects of the Example compounds on the KCNQ2/KCNQ3 potassium channel current expressed in mammalian cells using the PatchXpress 7000A (Molecular Devices), an automatic parallel patch clamp system. The test compounds were evaluated at 30 μM with this concentration tested in 3 cells (n=3). The duration of exposure to the test compound concentration was 5 minutes. […] The results for a positive control, flupirtine (Table 2) confirm the sensitivity of the test system to detect KCNQ2/KCNQ3 current enhancement.
All experiments were performed at ambient temperature. Each cell acted as its own control.
A 30 μM concentration of test compound was applied via disposable polyethylene micropipette tips to naïve cells (n=2, where n=the number cells). Each solution exchange, performed in quadruplicate, consisted of aspiration and replacement of 45 of the total 50 μL volume of the extracellular well of the Sealchip16.
Vehicle was applied to naïve cells (n 2, where n=the number cells), for a 5 minute exposure interval. Each solution exchange, performed in quadruplicate, consisted of aspiration and replacement of 45 μL of the total 50 μL volume of the extracellular well of the Sealchip16. After vehicle application, the positive control was applied in the same manner, to verify sensitivity of the assay.
In preparation for a recording session, intracellular solution was loaded into the intracellular compartments of the Sealchip16 planar electrode. Cell suspension was pipetted into the extracellular compartments of the Sealchip16 planar electrode. After establishment of a whole-cell configuration, membrane currents were recorded using dual-channel patch clamp amplifiers in the PatchXpress®system. Before digitization, the current records were low-pass filtered at one-fifth of the sampling frequency.
Data acquisition and analyses were performed using the suite of pCLAMP programs (Axon Instruments, Union City, Calif.). Steady state was defined by the limiting constant rate of change with time (linear time dependence). The steady state before and after test article application was used to calculate the percentage of current inhibited at each concentration. Results obtained from different cell were averaged and presented as Mean±S.D.—see Tables 1 and 2.

[1] = 30 μM test compound, 5 minutes exposure

| Compound | Mean % Enhancement of KCNQ2/KCNQ3 (10 μM positive control, applied after vehicle) | Mean % Enhancement of KCNQ2/KCNQ3 [1] |
| --- | --- | --- |
| CCOC(=O)Nc1ccc(NCc2ccc(F)cc2)nc1N [Flupirtine, reference compound] | 201.0% |  |
| O=C(Cc1ccc(Nc2c(Cl)cc(C(F)(F)F)cc2Cl)cc1)NCCO [Example 3, 2-[4-(2,6-Dichloro-4-trifluoromethyl-phenylamino)-phenyl]-N-(2-hydroxy-ethyl)-acetamide] |  | 115.8% |
| O=C(Cc1cccc(Nc2c(Cl)cc(Cl)cc2Cl)c1)NCCO [Example 1, N-(2-Hydroxy-ethyl)-2-[3-(2,4,6-trichloro-phenylamino)-phenyl]-acetamide] |  | 168.2% |
| O=C(O)CNC(=O)Cc1cc(Nc2cc(Cl)cc(Cl)c2)ccc1F [Example 2, {2-[5-(3,5-Dichloro-phenylamino)-2-fluoro-phenyl]-acetylamino}-acetic acid] |  | 162.5% |
| O=C(O)CNC(=O)Cc1ccc(Nc2cc(Cl)cc(Cl)c2)cc1 [Example 4, {2-[4-(3,5-Dichlorophenylamino)-phenyl]-acetylamino}-acetic acid] |  | 181.9% |
